# Reference: patent publication US20230085307A1, “PYRIDAZINONE COMPOUND AND HERBICIDE” (NISSAN CHEMICAL CORPORATION, priority 2019, published 2023)
# What was measured:
# oval-leafed pondweed = test: Test Example 1: herbicidal activity, application before weed generation under submerged conditions (Table 16, symbol C); assay type: in vivo, oval-leafed pondweed (Monochoria vaginalis); details: amount of applied herbicide 320 g/ha
# How it was run: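 Emulsion formulation, water-diluted to set dose, was put onto the flooded surface (4 cm depth, alluvial soil) the same day weeds were sown and 2.5-leaf rice transplanted. After 3 weeks at 25-30 °C under glass, each species was rated 0 (≤5% kill) to 5 (≥90% kill).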
# Japanese bulrush = test: Test Example 2: herbicidal activity, application during weed generation under submerged conditions (Table 17, symbol B); assay type: in vivo, Japanese bulrush (Schoenoplectus juncoides)
# How it was run: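 In this pot test, flooded alluvial soil (water depth 4 cm) holds all three species sown as a mixture. Once seedlings have one to two leaves, the compound's emulsion, thinned with water to the intended dose, is poured on the water; grading follows after three weeks on the earlier criteria.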
# Chinese sprangletop = test: Test Example 3: herbicidal effect by foliage application, Wagner pot (Table 18, symbol D); assay type: in vivo, chinese sprangletop (Leptochloa chinensis); details: amount of applied herbicide 320 g/ha
# How it was run: (§1)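 Plants were sown in alluvial soil held under 0.1–0.5 cm standing water and grown 14 days in a greenhouse at 25–30 °C. An emulsifiable formulation, water-diluted to the set dose, was then sprayed onto the foliage, and effects were scored three weeks later using previously defined criteria.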
# rice flat sedge = test: Test Example 3: herbicidal effect by foliage application, Wagner pot (Table 18, symbol E); assay type: in vivo, rice flat sedge (Cyperus iria); details: amount of applied herbicide 320 g/ha
# How it was run: as §1
# southern crabgrass [1] = test: Test Example 4: herbicidal effect by soil treatment (Table 19, symbol F); assay type: in vivo, southern crabgrass (Digitaria ciliaris); details: amount of applied herbicide 320 g/ha
# How it was run: (§2)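 Three weeks of greenhouse growth at 25° C. to 30° C. followed a uniform surface spray of water-diluted emulsion at a predetermined herbicide amount. Seeds had been sown beforehand under about 1.5 cm of sterilized diluvial soil. Grading followed criteria set out in an earlier test.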
# green foxtail = test: Test Example 4: herbicidal effect by soil treatment (Table 19, symbol G); assay type: in vivo, green foxtail (Setaria viridis); details: amount of applied herbicide 320 g/ha
# How it was run: as §2
# wild oat [2] = test: Test Example 4: herbicidal effect by soil treatment (Table 19, symbol I); assay type: in vivo, wild oat (Avena fatua); details: amount of applied herbicide 320 g/ha
# How it was run: as §2
# blackgrass [3] = test: Test Example 4: herbicidal effect by soil treatment (Table 19, symbol J); assay type: in vivo, blackgrass (Alopecurus myosuroides); details: amount of applied herbicide 320 g/ha
# How it was run: as §2
# redroot pigweed = test: Test Example 4: herbicidal effect by soil treatment (Table 19, symbol N); assay type: in vivo, redroot pigweed (Amaranthus retroflexus); details: amount of applied herbicide 320 g/ha
# How it was run: as §2
# southern crabgrass [4] = test: Test Example 5: herbicidal effect by foliage application, plastic box (Table 20, symbol F); assay type: in vivo, southern crabgrass (Digitaria ciliaris); details: foliage application, 320 g/ha
# How it was run: (§3)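 Plants sown in sterilized diluvial soil and grown 14 days in a greenhouse at 25° C to 30° C, then sprayed on the foliage with the compound's emulsion diluted in water to a predetermined herbicide amount. Injury to weeds and crops scored three weeks after application on a visual rating scale.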
# barnyard grass = test: Test Example 5: herbicidal effect by foliage application, plastic box (Table 20, symbol H); assay type: in vivo, barnyard grass (Echinochloa crus-galli); details: foliage application, 320 g/ha
# How it was run: as §3
# wild oat [5] = test: Test Example 5: herbicidal effect by foliage application, plastic box (Table 20, symbol I); assay type: in vivo, wild oat (Avena fatua); details: foliage application, 320 g/ha
# How it was run: as §3
# blackgrass [6] = test: Test Example 5: herbicidal effect by foliage application, plastic box (Table 20, symbol J); assay type: in vivo, blackgrass (Alopecurus myosuroides); details: foliage application, 320 g/ha
# How it was run: as §3
# Italian ryegrass = test: Test Example 5: herbicidal effect by foliage application, plastic box (Table 20, symbol K); assay type: in vivo, Italian ryegrass (Lolium multiflorum); details: foliage application, 320 g/ha
# How it was run: as §3
# velvetleaf = test: Test Example 5: herbicidal effect by foliage application, plastic box (Table 20, symbol M); assay type: in vivo, velvetleaf (Abutilon theophrasti); details: foliage application, 320 g/ha
# How it was run: as §3
# lambsquarters = test: Test Example 5: herbicidal effect by foliage application, plastic box (Table 20, symbol O); assay type: in vivo, lambsquarters (Chenopodium album); details: foliage application, 320 g/ha
# How it was run: as §3
# [7] = evaluated 3 weeks after application
Compound,"Herbicidal effect, C: oval-leafed pondweed (oval-leafed pondweed)","Herbicidal effect on D (Chinese sprangletop), foliage application (Chinese sprangletop)","Herbicidal effect on E (rice flat sedge), foliage application (rice flat sedge)","F: southern crabgrass, herbicidal effect grade (southern crabgrass [1])","G: green foxtail, herbicidal effect grade (green foxtail)","I: wild oat, herbicidal effect grade (wild oat [2])","J: blackgrass, herbicidal effect grade (blackgrass [3])","N: redroot pigweed, herbicidal effect grade (redroot pigweed)",further results
COCCOc1ccc(-c2oc3ccc(C)cc3c2-c2c(O)c(C)nn(C)c2=O)cc1 [9-063],5 (Herbicidal rate of 90% or more (almost completely withered)),3 (Herbicidal rate of 40% or more and less than 70%),4 (Herbicidal rate of 70% or more and less than 90%),5 (Herbicidal rate of 90% or more (almost completely withered)),5 (Herbicidal rate of 90% or more (almost completely withered)),0 (Herbicidal rate of 5% or less (almost no effect)),5 (Herbicidal rate of 90% or more (almost completely withered)),5 (Herbicidal rate of 90% or more (almost completely withered)),"herbicidal effect grade, B: Japanese bulrush (Japanese bulrush; application during weed generation under submerged conditions, amount of applied herbicide 320 g/ha): 4 (Herbicidal rate of 70% or more and less than 90%); F (southern crabgrass) herbicidal effect grade (southern crabgrass [4]; [7]): 5 (Herbicidal rate of 90% or more (almost completely withered)); H (barnyard grass) herbicidal effect grade (barnyard grass; [7]): 5 (Herbicidal rate of 90% or more (almost completely withered)); I (wild oat) herbicidal effect grade (wild oat [5]; [7]): 1 (Herbicidal rate of 5% or more and less than 20%); J (blackgrass) herbicidal effect grade (blackgrass [6]; [7]): 5 (Herbicidal rate of 90% or more (almost completely withered)); K (Italian ryegrass) herbicidal effect grade (Italian ryegrass; [7]): 5 (Herbicidal rate of 90% or more (almost completely withered)); M (velvetleaf) herbicidal effect grade (velvetleaf; [7]): 5 (Herbicidal rate of 90% or more (almost completely withered)); O (lambsquarters) herbicidal effect grade (lambsquarters; [7]): 5 (Herbicidal rate of 90% or more (almost completely withered))"
C=CCOc1ccc(-c2oc3ccccc3c2-c2c(O)c(C)nn(C)c2=O)cc1 [8-004],4 (Herbicidal rate of 70% or more and less than 90%),3 (Herbicidal rate of 40% or more and less than 70%),4 (Herbicidal rate of 70% or more and less than 90%),4 (Herbicidal rate of 70% or more and less than 90%),3 (Herbicidal rate of 40% or more and less than 70%),0 (Herbicidal rate of 5% or less (almost no effect)),0 (Herbicidal rate of 5% or less (almost no effect)),5 (Herbicidal rate of 90% or more (almost completely withered)),"herbicidal effect rating, B: Japanese bulrush (Japanese bulrush; AAH 320 g/ha, application during weed generation, submerged conditions): 3 (Herbicidal rate of 40% or more and less than 70%); herbicidal effect on southern crabgrass (F) (southern crabgrass [4]; three weeks after application): 4 (Herbicidal rate of 70% or more and less than 90%); herbicidal effect on barnyard grass (H) (barnyard grass; three weeks after application): 3 (Herbicidal rate of 40% or more and less than 70%); herbicidal effect on wild oat (I) (wild oat [5]; three weeks after application): 3 (Herbicidal rate of 40% or more and less than 70%); herbicidal effect on blackgrass (J) (blackgrass [6]; three weeks after application): 3 (Herbicidal rate of 40% or more and less than 70%); herbicidal effect on Italian ryegrass (K) (Italian ryegrass; three weeks after application): 4 (Herbicidal rate of 70% or more and less than 90%); herbicidal effect on velvetleaf (M) (velvetleaf; three weeks after application): 2 (Herbicidal rate of 20% or more and less than 40%); herbicidal effect on lambsquarters (O) (lambsquarters; three weeks after application): 3 (Herbicidal rate of 40% or more and less than 70%)"
